# What was measured:
# TrkA [1] = target: T1, TrkA (Rattus norvegicus, UniProt P35739); design: method as in PMID 27618740; details: cited from earlier work
# T1 construct: we used PC12 cells, a cell line that express TrkA and p75^NTR; host or cells: PC12
# [2] = design: method as in PMID 27498123, PMID 33638308; details: t = 60 min; cited from earlier work
# Erk1/2 [3] = system: Erk1/2; design: method as in PMID 27618740; details: cited from earlier work
# γ-secretase = γ-secretase activity / APP processing in U2OS APP-C99-tGFP cells; format: cell-based; details: 3 μM, positive control
# Description: PC12 and HEK293T cells were obtained from LGC Promochem GmbH (Teddington, UK) and cultured under the conditions specified by the manufacturer. NIH3T3 cells were stably transfected with human TrkB plasmid. PC12 cells were grown in DMEM medium (11965084, Gibco, Grand Island, NY, USA) containing 10% Horse Serum (16050122, Gibco, Grand Island, NY, USA), 5% Fetal Bovine Serum (10270106, Gibco, Grand Island, NY, USA), 100 units/mL Penicillin and 0.1 mg/mL Streptomycin (15140122, Gibco, Grand Island, NY, USA) at 5% CO2 and 37 °C. Cells were used between passages 5–20. HEK293T and NIH3T3 cells were grown in the same medium as PC12 cells supplemented with 10% Fetal Bovine Serum and lacking Horse Serum. For transient transfection of HEK293T cells, lipofectamine was used and cells were transfected with human p75^NTR and Traf6 plasmids. To determine the intracellular activity of endogenous secretases, we tagged (tGFP) a truncated mutant (Tm) of APP containing the original amino acids sequence from M516 to N773. This Tm conserves the secretases cleavage sites, clathrin binding site, tau protein binding site, collagen binding site and some glycosylation sites critical for protein localization and intracellular trafficking. The cDNA of the TmAPP gene was amplified by PCR and subcloned into pturbo-GFP vector. The construction was transfected into U2OS cells (ATCC Cat Number HTB-96) using Lipofectamine LTX (Thermo Fisher Scientific, Waltham, MA, USA). After 48 h, individual cells were plated in MTP96 plates using F.SIGHT (CYTENA GmbH, Freiburg, Germany), and cultured in complete medium containing 250 μg/mL G418 for selection. The selection medium was changed every two to three days. The cells were allowed to grow for 3 to 4 weeks, after which clones were isolated for further analysis. Resistant clones were checked by RT-PCR and epifluorescence microscopy.
# The Alzheimer’s Disease (AD) phenotype is partly attributed to the toxic effects caused by oligmeric Aβ, which results in reduced neuronal trophic support, caused by deregulation of neurotrophic signaling. It is therefore reasonable that a small molecule that can selectively activate TrkA signaling and promote neuronal survival could alleviate the detrimental effects caused by toxic Aβ oligomers, especially during the early phases of the disease or modulate APP misprocessing and therefore reduce the production of the toxic Aβ. The U2OS stably expressing APP-C99-tGFP cell line was used in order to monitor γ-secretase activity, the process responsible for Aβ production from APP. The assay achieves this by measuring the levels of fluorescent APP-C99 construct produced by β-secretase activity. When γ-secretase is active, the construct is cleaved, leading to Aβ production. […] Therefore, higher fluorescence levels correspond to decreased γ-secretase activity and Aβ aggregate formation by extension. […] In addition, in order to investigate whether ENT-A013 can protect cells against Aβ-induced toxicity we isolated neurons from the hippocampus of E17.5 mouse embryos, a brain area that is heavily affected in AD. Neurons were left in culture for 16–18 DIV and then were treated with oligomeric Aβ and ENT-A013 for 48 h. Subsequently, cells were fixed and cell death was assessed using TUNEL assay.
# (A,B) Primary hippocampal neurons were treated for 48 h with oligomeric Aβ in the presence of ENT-A013 and TUNEL assay was used to quantify cell death. Representative images from 3 independent experiments. Data are shown as ±SEM. One-way ANOVA, Tukey’s Test correction: ** p < 0.01; *** p < 0.001. (C) Aggregate formation on untreated cells, treated with DAPT inhibitor of γ-secretase or with compound ENT-A013. […] Aggregate formation was quantified with a BD Pathway 855 High-Content Bioimager and Attonvision software.
# Erk1/2 [4] = assay: Erk1/2 phosphorylation in PC12 cells (Western blot); format: cell-based; details: for Erk1/2 phosphorylation: 500 nM, 30′
# Description: (§1) For immunoprecipitation experiments PC12 or HEK293T, cells were used when at 70–80% confluent. Cells were starved of serum for 4 h and subsequently treated with 100 ng/mL NGF or 500 nM of compound ENT-A013 for 30′. Cells were then lysed in Pierce™ IP Lysis Buffer (87788, Thermo Fischer Scientific, Waltham, MA, USA) containing proteases (539138, Calbiochem, Darmstadt, Germany) and phosphatase inhibitors (524629, Calbiochem, Darmstadt, Germany). Lysates were then immunoprecipitated overnight at 4 °C with TrkA antibody (1:100, 06-574, Sigma-Aldrich, St. Louis, MO, USA) (Table S1) or p75^NTR antibody (1:100, ab6172, Abcam plc., Cambridge, UK) followed by 4 h incubation with protein G-plus agarose beads (sc-2002, Santa Cruz Biotechnology, Inc., Dallas, TX, USA). Beads were then collected, washed 3X with lysis buffer, resuspended in SDS loading buffer and subjected to Western blot against phosphorylated Tyrosine (1:1000, BAM1676, R&D Systems, Inc., Minneapolis, MN, USA) or Traf6 antibody (1:2000, ab33915, Abcam, plc., Cambridge, UK). Whole cell lysates were subjected to Western blot against TrkA (1:1000, 06-574, Sigma-Aldrich, St. Louis, MO, USA), phosphorylated TrkB (1:1000, ABN1381, Sigma-Aldrich, St. Louis, MO, USA), phosphorylated TrkC (1:1000, STJ90960, St John’s Laboratory, Ltd., London, UK), TrkB (1:1000, 07-225-I, Sigma-Aldrich, St. Louis, MO, USA), TrkC (1:1000, C44H5, Cell Signaling Technology, Danvers, MA, USA), p75 (1:1000, 839701, Biolegend, Inc., San Diego, CA, USA), Traf6 (1:2000, ab33915, Abcam, plc., Cambridge, UK) phosphorylated Akt (1:1000, 9721S, Cell Signaling Technology, Danvers, MA, USA), phosphorylated Erk1/2 (1:1000, 9101S, Cell Signaling Technology, Danvers, MA, USA), total Akt (1:1000, 4691S Cell Signaling Technology, Danvers, MA, USA) and total Erk1/2 (1:1000, 4695S, Cell Signaling Technology, Danvers, MA, USA).
# TrkA [5] = target: T1, TrkA; assay: TrkA phosphorylation in PC12 cells (IP with TrkA antibody, Western blot against phosphorylated Tyrosine); format: cell-based; details: for time TrkA phosphorylation is sustained after treatment: PC12 cells, 10, 30 or 60′ treatment
# Description: as §1, with “Cells were starved of serum for 4 h and subsequently treated with 100 ng/mL NGF or 500 nM of compound ENT-A013 for 30′.” left out
# PC12 cells = assay: CellTox assay, serum deprivation-induced cell death; format: cell-based; details: serum deprivation; for CellTox positive cells normalized to total number of cells: 24 h, 500 nM; for IC50: CellTox, read-out: IC50 (anti-apoptotic dose–response)
# Description: CellTox assay (G8742, Promega Corporation, Maddison, WI, USA) was used to assess survival of PC12 cells under serum deprivation conditions. PC12 cells were plated in 96-well plates, starved of serum for 4 h and subsequently treated with NGF (100 ng/mL) or ENT-A013 (500 nM) in the presence or absence of TrkA inhibitor GW441756 (20 μM, G-190, Alomone labs, Jerusalem, Israel) for 24 h. CellTox assay reagents and Hoescht (1:10,000, H3570, Invitrogen, Waltham, MA, USA) were added to each well for 30′ and cells were then imaged with a Zeiss AXIO Vert A1 fluorescent microscope (Zeiss, Jena, Germany). CellTox positive cells were normalized to total number of cells for each image.
# T1 sequence (P35739 33-799): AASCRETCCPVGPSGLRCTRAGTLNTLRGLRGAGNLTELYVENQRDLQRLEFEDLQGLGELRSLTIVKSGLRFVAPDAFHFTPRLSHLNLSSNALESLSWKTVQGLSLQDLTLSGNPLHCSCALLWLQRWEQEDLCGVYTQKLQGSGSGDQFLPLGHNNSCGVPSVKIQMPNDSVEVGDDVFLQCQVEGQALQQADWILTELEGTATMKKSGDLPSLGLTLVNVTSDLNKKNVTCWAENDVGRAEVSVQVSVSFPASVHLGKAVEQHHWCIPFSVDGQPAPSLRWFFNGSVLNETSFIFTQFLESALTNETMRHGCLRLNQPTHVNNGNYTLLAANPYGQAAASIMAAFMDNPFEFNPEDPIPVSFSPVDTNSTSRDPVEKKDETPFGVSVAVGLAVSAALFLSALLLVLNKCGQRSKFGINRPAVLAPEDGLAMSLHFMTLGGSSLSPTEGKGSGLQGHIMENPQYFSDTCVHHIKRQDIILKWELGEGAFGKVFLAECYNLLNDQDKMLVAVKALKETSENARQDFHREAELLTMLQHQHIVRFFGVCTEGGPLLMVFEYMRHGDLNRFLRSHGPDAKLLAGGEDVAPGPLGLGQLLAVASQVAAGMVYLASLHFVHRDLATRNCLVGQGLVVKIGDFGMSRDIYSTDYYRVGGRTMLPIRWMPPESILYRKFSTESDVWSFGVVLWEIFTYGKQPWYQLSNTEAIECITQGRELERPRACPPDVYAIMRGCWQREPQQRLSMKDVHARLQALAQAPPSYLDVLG
Compound,time Erk1/2 phosphorylation is sustained after treatment (Erk1/2 [4]),Erk1/2 phosphorylation (Erk1/2 [4]),time TrkA phosphorylation is sustained after treatment (TrkA [5]),CellTox positive cells normalized to total number of cells (PC12 cells),IC50 (PC12 cells) [nM],other results
C[C@]12CC[C@H](O)CC1=CC[C@@H]1[C@@H]2CC[C@@]2(C)[C@H]1CC[C@@]21O[C@@H]1CO [BNN27],,,,,,time TrkA is phosphorylated after treatment (TrkA [1]): up to 6 hr; residual of time zero [2]: 70%; time beyond which Erk1/2 is not activated (Erk1/2 [3]): ≤ 15 min
"C[C@H](NC(=O)Cc1cc(F)cc(F)c1)C(=O)N[C@H](C(=O)OC(C)(C)C)c1ccccc1 [DAPT, reference compound]",,,,,,"fluorescence levels (APP-C99-tGFP, in words) (γ-secretase): Fluorescence levels increased"
CC12CCC(O)CC1=CCC1C2CCC2(C)C1CCC21CC1C=CBr (stereo not drawn) [ENT-A013E],up to 1 hr,7.87 ± 2.23 % of control FC,up to 1 hr,0.07 ± 0.02,281,
CC12CCC(O)CC1=CCC1C2CCC2(C)C1CCC21CC1C=CBr (stereo not drawn) [ENT-A013Z],up to 1 hr,4.13 ± 1.46 % of control FC,up to 1 hr,0.08 ± 0.02,273,
"NGF: Nerve Growth Factor, neurotrophin acting through TrkA and p75NTR receptors",,,,,,"TrkA phosphorylation (TrkA [5]; PC12 cells, compound 500 nM or NGF 100 ng/mL, 30′): 2.30 ± 0.62 % of control FC"

# From article PMC8945229, “Development and Biological Characterization of a Novel Selective TrkA Agonist with Neuroprotective Properties against Amyloid Toxicity” (Biomedicines, 2022)
